The values below come from patent publication US8178535B2, “Substituted sulfonamide compounds having bradykinin 1 receptor activity and use thereof as medicaments” (Gruenenthal GmbH, priority 2008, dated 2012).

Assay [1] concerns the target T1, human B1R receptor (hB1R) (Homo sapiens, UniProt P46663).
T1 construct: host or cells: CHO K1 cells
T1 sequence (P46663 1-353): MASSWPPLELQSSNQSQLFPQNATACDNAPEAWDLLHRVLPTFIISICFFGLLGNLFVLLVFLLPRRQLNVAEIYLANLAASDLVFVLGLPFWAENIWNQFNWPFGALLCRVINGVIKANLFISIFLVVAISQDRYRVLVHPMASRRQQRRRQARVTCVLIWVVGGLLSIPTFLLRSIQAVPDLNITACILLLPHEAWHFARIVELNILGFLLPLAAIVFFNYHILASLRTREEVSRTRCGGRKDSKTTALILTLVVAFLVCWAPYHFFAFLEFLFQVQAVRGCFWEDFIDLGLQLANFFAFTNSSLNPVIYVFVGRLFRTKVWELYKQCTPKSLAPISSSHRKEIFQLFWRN
Briefly: FLIPR Ca2+ assay (Fluo-4) on CHO K1 cells stably transfected with the human B1R gene. As to conditions: CHO-K1; test substance 10 μM; agonist Lys-Des-Arg9-bradykinin 0.5 nM; % inhibition compared to the maximum achievable inhibition. It is filed as cell-based. As for the experimental part: (§1) The agonistic or antagonistic action of compounds can be quantified on the bradykinin 1 receptor (B1R) of humans and rats with ectopically expressing cell lines (CHO K1 cells) and with the aid of a Ca^2+-sensitive dye (Fluo-4) in the fluorescent imaging plate reader (FLIPR). The figure in percent activation refers to the Ca^2+ signal after addition of Lys-Des-Arg^9-bradykinin (0.5 nM) and Des-Arg^9-bradykinin (100 nM). Antagonists result in a suppression of the Ca^2+ inflow after the addition of the agonist. Percent inhibition values are given in comparison to the maximum achievable inhibition. The compounds according to the invention act, for example, on the B1R which is implicated in various disease states. This means that the compounds of the invention are useful as pharmaceutically active substances in medicaments for the treatment and/or inhibition of such disease states.
(§2) The agonistic or antagonistic action of substances can be determined on the bradykinin 1 receptor (B1R) of humans and rats by means of the following assay. According to this assay the Ca^2+ inflow through the channel is quantified by means of a Ca^2+-sensitive dye (Fluo-4 type, Molecular Probes Europe BV, Leiden, Netherlands), in a Fluorescent Imaging Plate Reader (FLIPR, Molecular Devices, Sunnyvale, USA).
(§3) Chinese hamster ovary cells (CHO K1 cells) are used, which are stably transfected with the human B1R gene (hB1R cells, Euroscreen s.a., Gosselies, Belgium), or with the B1R gene of rats (rB1R cells, Axxam, Milan, Italy). For functional investigations these cells are plated out on black 96-well plates with a clear floor (BD Biosciences, Heidelberg, Germany) in a density of 20,000/25,000 cells/well. The cells are incubated overnight with 10 vol. % FBS (foetal bovine serum, Gibco Invitrogen GmbH, Karlsruhe, Germany) at 37° C. and 5% CO2 in a culture medium (hB1R cells: Nutrient Mixture Ham's F12, Gibco Invitrogen GmbH, Karlsruhe, Germany; rB1R cells: D-MEM/F12, Gibco Invitrogen GmbH, Karlsruhe, Germany). The following day the cells are charged for 60 minutes at 37° C. with 2.13 μM Fluo-4 (Molecular Probes Europe BV, Leiden, Netherlands) in HBSS buffer (Hank's buffered saline solution, Gibco Invitrogen GmbH, Karlsruhe, Germany) together with […] (Sigma-Aldrich, Taufkirchen, Germany) and 10 mM HEPES (Sigma-Aldrich, Taufkirchen, Germany).
(§4) The plates are then washed twice with HBSS buffer and HBSS buffer is added which additionally contains 0.1% BSA (bovine serum albumin; Sigma-Aldrich, Taufkirchen, Germany), 5.6 mM glucose and 0.05% gelatin (Merck KGaA, Darmstadt, Germany). After further incubation for 20 minutes at room temperature the plates are used for the Ca^2+ measurement in the FLIPR. The Ca^2+-dependent fluorescence is measured both before and after the addition of substances (λex=488 nm, λem=540 nm). The quantification is carried out by measuring the highest fluorescence intensity (FC, fluorescence counts) over time.
(§5) The FLIPR protocol consists of two substance additions. First, test substances (10 μM) are pipetted onto the cells and the Ca^2+ inflow is compared with the control (hB1R: Lys-Des-Arg9-bradykinin 0.5 nM; rB1R: Des-Arg9-bradykinin 100 nM). This gives the result in percent activation referred to the Ca^2+ signal after addition of Lys-Des-Arg9-bradykinin (0.5 nM), bzw. Des-Arg9-bradykinin (100 nM). After 10 minutes' incubation 0.5 nM Lys-Des-Arg9-bradykinin (hB1R) and 100 nM Des-Arg^9-bradykinin (rB1R) are applied and the inflow of Ca^2+ is likewise determined. Antagonists lead to a suppression of the Ca^2+ inflow. The percent inhibition compared to the maximum achievable inhibition is calculated. The compounds show a good activity on both human and rat receptors.
(§6) The agonistic and antagonistic action of the compounds according to the invention on the bradykinin 1 receptor (B1R) of humans and rats were determined as described above. Antagonists lead to a suppression of the Ca^2+ inflow. […]

The target in assay [2] is T2, B1R receptor of rats (rB1R) (Rattus norvegicus, UniProt P97583).
T2 construct: host or cells: CHO K1 cells
T2 sequence (P97583 1-337): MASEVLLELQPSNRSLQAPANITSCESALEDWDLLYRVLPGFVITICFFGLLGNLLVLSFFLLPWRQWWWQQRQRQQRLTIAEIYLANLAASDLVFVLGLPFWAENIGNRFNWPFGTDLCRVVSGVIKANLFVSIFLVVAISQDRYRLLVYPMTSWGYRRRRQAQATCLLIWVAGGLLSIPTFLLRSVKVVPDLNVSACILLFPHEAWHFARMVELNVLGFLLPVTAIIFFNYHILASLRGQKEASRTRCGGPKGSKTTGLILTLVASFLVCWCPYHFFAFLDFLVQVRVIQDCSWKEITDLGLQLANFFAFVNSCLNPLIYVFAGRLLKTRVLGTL
Briefly: FLIPR Ca2+ assay (Fluo-4) on CHO K1 cells stably transfected with the B1R gene of rats. In kind it is cell-based. The following applies: CHO-K1; test substance 10 μM; agonist Des-Arg9-bradykinin 100 nM; % inhibition compared to the maximum achievable inhibition. How it is done: as §1, §2, §3, §4, §5, §6

One may read the inhibition as the drop in the measured response relative to a control, in per cent.

Regarding `CN1CCN(CCCc2ccc3n2CCN(C(=O)CC2CCCCN2S(=O)(=O)c2cccc(C(F)(F)F)c2)C3)CC1` (stereo not drawn) [(15), 1-(6-(3-(4-methylpiperazin-1-yl)propyl)-3,4-dihydropyrrolo[1,2-a]pyrazin-2(1H)-yl)-2-(1-(3-(trifluoromethyl)phenylsulfonyl)piperidin-2-yl)ethanone], the inhibition at 10 µM in assay [1] stood at 46%; in assay [2], 100%.

For `CN1CCN(CCCc2ccc3n2CCN(C(=O)COCC2CCc4ccccc4N2S(=O)(=O)c2ccc(Cl)c(Cl)c2)C3)CC1` (stereo not drawn) [(16), 2-((1-(3,4-dichlorophenylsulfonyl)-1,2,3,4-tetrahydroquinolin-2-yl)methoxy)-1-(6-(3-(4-methylpiperazin-1-yl)propyl)-3,4-dihydropyrrolo[1,2-a]pyrazin-2(1H)-yl)ethanone], the values for the inhibition at 10 µM in assay [1] and in assay [2] were 48% and 92%, respectively.

On to `O=C(CC1CCCCN1S(=O)(=O)c1cccc(C(F)(F)F)c1)N1CCn2c(CCCN3CCCC3)ccc2C1` (stereo not drawn) [(17), 1-(6-(3-(pyrrolidin-1-yl)propyl)-3,4-dihydropyrrolo[1,2-a]pyrazin-2(1H)-yl)-2-(1-(3-(trifluoromethyl)phenylsulfonyl)piperidin-2-yl)ethanone], for which the results for the inhibition at 10 µM in assay [1] and in assay [2] were 50% and 75%, respectively.

Regarding `Cc1cc(S(=O)(=O)N2CCCCC2CCC(=O)N2CCn3c(CCCN4CCCC4)ccc3C2)c(C)cc1Cl` (stereo not drawn) [(18), 3-(1-(4-chloro-2,5-dimethylphenylsulfonyl)piperidin-2-yl)-1-(6-(3-(pyrrolidin-1-yl)propyl)-3,4-dihydropyrrolo[1,2-a]pyrazin-2(1H)-yl)propan-1-one], the inhibition at 10 µM is 90% in assay [1] and 99% in assay [2].

With `COc1cc(C)c(S(=O)(=O)N2CCCCC2COCC(=O)N2CCn3cccc3C2C(C)(C)C)c(C)c1` (stereo not drawn) [(19), 1-(1-tert-butyl-3,4-dihydropyrrolo[1,2-a]pyrazin-2(1H)-yl)-2-((1-(4-methoxy-2,6-dimethyl-phenylsulfonyl)piperidin-2-yl)methoxy)ethanone], the inhibition at 10 µM in assay [1] was determined as 102%; in assay [2], 96%.

Take `COc1cc(C)c(S(=O)(=O)N2CCCCC2COCC(=O)N2CCn3cccc3C2C)c(C)c1` (stereo not drawn) [(20), 2-((1-(4-methoxy-2,6-dimethylphenylsulfonyl)piperidin-2-yl)methoxy)-1-(1-methyl-3,4-dihydropyrrolo[1,2-a]pyrazin-2(1H)-yl)ethanone]: the inhibition at 10 µM in assay [1] turned out to be 101%; in assay [2] it was 99%.

Take `COc1cc(C)c(S(=O)(=O)N2CCCCC2COCC(=O)N2CCn3cccc3C2c2cccnc2)c(C)c1` (stereo not drawn) [(21), 2-((1-(4-methoxy-2,6-dimethylphenylsulfonyl)piperidin-2-yl)methoxy)-1-(1-(pyridin-3-yl)-3,4-dihydropyrrolo[1,2-a]pyrazin-2(1H)-yl)ethanone]: the inhibition at 10 µM in assay [1] came to 100%; in assay [2] it was 98%.

`COc1cc(C)c(S(=O)(=O)N2CCCCC2COCC(=O)N2CCn3cccc3C2c2ccc(Cl)nc2)c(C)c1` (stereo not drawn) [(22), 1-(1-(6-chloropyridin-3-yl)-3,4-dihydropyrrolo[1,2-a]pyrazin-2(1H)-yl)-2-((1-(4-methoxy-2,6-dimethylphenylsulfonyl)piperidin-2-yl)methoxy)ethanone]: the results for the inhibition at 10 µM in assay [1] and in assay [2] were 102% and 99%, respectively.

`COc1cc(C)c(S(=O)(=O)N2CCCCC2COCC(=O)N2CCn3ccnc3C2)c(C)c1` (stereo not drawn) [(23), 1-(5,6-dihydroimidazo[1,2-a]pyrazin-7(8H)-yl)-2-((1-(4-methoxy-2,6-dimethyl-phenylsulfonyl)piperidin-2-yl)methoxy)ethanone]: the inhibition at 10 µM came out at 70% in assay [1] and 99% in assay [2].

With `COc1ccc(C2c3cccn3CCN2C(=O)COCC2CCCCN2S(=O)(=O)c2c(C)cc(OC)cc2C)cc1` (stereo not drawn) [(24), 2-((1-(4-methoxy-2,6-dimethylphenylsulfonyl)piperidin-2-yl)methoxy)-1-(1-(4-methoxyphenyl)-3,4-dihydropyrrolo[1,2-a]pyrazin-2(1H)-yl)ethanone], the results for the inhibition at 10 µM in assay [1] and in assay [2] were 101% and 98%, respectively.

For the molecule `COc1cc(C)c(S(=O)(=O)N2CCCCC2COCC(=O)N2CCn3cccc3C2c2ccccc2)c(C)c1` (stereo not drawn) [(25), 2-((1-(4-methoxy-2,6-dimethylphenylsulfonyl)piperidin-2-yl)methoxy)-1-(1-phenyl-3,4-dihydropyrrolo[1,2-a]pyrazin-2(1H)-yl)ethanone], the inhibition at 10 µM in assay [1] is 99%; in assay [2], 97%.

Regarding `COc1cc(C)c(S(=O)(=O)N2CCCCC2COCC(=O)N2CCn3cccc3C2c2ccc(F)c(F)c2)c(C)c1` (stereo not drawn) [(26), 1-(1-(3,4-difluorophenyl)-3,4-dihydropyrrolo[1,2-a]pyrazin-2(1H)-yl)-2-((1-(4-methoxy-2,6-dimethylphenylsulfonyl)piperidin-2-yl)methoxy)ethanone], the inhibition at 10 µM in assay [1] was found to be 86%; in assay [2], 98%.

Take `COc1cc(C)c(S(=O)(=O)N2CCCCC2COCC(=O)N2CCn3cccc3C2c2ccc(C)c(C)c2)c(C)c1` (stereo not drawn) [(27), 1-(1-(3,4-dimethylphenyl)-3,4-dihydropyrrolo[1,2-a]pyrazin-2(1H)-yl)-2-((1-(4-methoxy-2,6-dimethylphenylsulfonyl)piperidin-2-yl)methoxy)ethanone]: the inhibition at 10 µM in assay [1] is 66%; in assay [2], 97%.

Turning to `COc1cc(C)c(S(=O)(=O)N2CCCCC2COCC(=O)N2CCn3cccc3C2c2cccc(F)c2)c(C)c1` (stereo not drawn) [(28), 1-(1-(3-fluorophenyl)-3,4-dihydropyrrolo[1,2-a]pyrazin-2(1H)-yl)-2-((1-(4-methoxy-2,6-dimethylphenylsulfonyl)piperidin-2-yl)methoxy)ethanone], the inhibition at 10 µM in assay [1] and in assay [2] was 98% in each case.

In the case of `COc1cc(C)c(S(=O)(=O)N2CCCCC2COCC(=O)N2CCn3cccc3C2c2cccs2)c(C)c1` (stereo not drawn) [(29), 2-((1-(4-methoxy-2,6-dimethylphenylsulfonyl)piperidin-2-yl)methoxy)-1-(1-(thiophen-2-yl)-3,4-dihydropyrrolo[1,2-a]pyrazin-2(1H)-yl)ethanone], the inhibition at 10 µM stood at 102% in assay [1] and 98% in assay [2].
